Measured values reported in patent publication US20050118262A1, “Controlled release formulation” (priority 2003, published 2005).

Experiment: Water solubility of selodenoson
Assay type: physicochemical

solubility in water (water): soluble in water
Structure (SMILES): CCNC(=O)[C@H]1O[C@@H](n2cnc3c(NC4CCCC4)ncnc32)[C@H](O)[C@@H]1O [selodenoson, N^6-cyclopentyl-5′-(N-ethyl)carboxamidoadenosine]
solubility in water under acidic conditions (water under acidic conditions): highly soluble in water under acidic conditions
